Test results reported in patent US10758552B2, “Pharmaceutical composition containing combinations of nicotinamide and 5-aminosalicylic acid for beneficially influencing the intestinal microbiota and/or treating gastrointestinal inflammation” (CONARIS RESEARCH INSTITUTE AG, priority 2013, dated 2020).

Experiments:
[1] = system: dextrane sodium sulfate (DSS) colitis model in mice; assay: DSS colitis model in mice on Trp/Nia/NAM-free diet, histological scoring of the colon (Example 1); format: in vivo, C57BL/6J mice; conditions: 1.5% DSS
Protocol: In order to characterise the combined effect of 5-ASA and nicotinamide (NAM) in controlled release formulations for targeted delivery of both substances to the intestinal epithelium, a study was conducted in a dextrane sodium sulfate (DSS) colitis model in mice. In this study, a controlled release granule formulation for was tested in two different doses (30 mg/kg and 60 mg/kg). As a representative controlled release formulation for 5-ASA, 5-ASA granules ([…]®; Ferring Pharmaceuticals, Saint-Prex, Switzerland) were used both alone and in combination with the NAM granules. The controlled release formulation for NAM is a granulate of 25% nicotinamide, 70% dibasic calcium phosphate and 5% Povidone K30. The mean particle size was 234 μm. […] Filtering removed particles with a size of less than 355 μm. Control granules replaced NAM with an equivalent amount of dibasic calcium phosphate. Male C57BL/6J mice (specific pathogen free; Charles River Laboratories, Saint-Germain-sur-l'Arbresle, France) were taken into the test facility at >12 weeks of age and acclimatised for 1 week. The diet during the acclimatisation phase was diet A4, produced by SAFE (Scientific Animal Food and Engineering, Augy, France). […] The fixed doses for the other granules were calculated in an analogous fashion. […]

murine DSS colitis model = assay: DSS colitis model in mice on normal diet, disease activity index (DAI) scoring (Example 2); format: in vivo, C57BL/6J mice; conditions: for % improvement of DAI vs DSS: granules in food, 2.5% DSS
Protocol: In a second and much larger study, NAM and 5-ASA controlled release granules were used again in the murine DSS colitis model (see Example 1) to confirm the anti-inflammatory properties of NAM in one low dose (30 mg/kg) and to investigate two higher dosages (120 or 240 mg/kg) not administered in the first study. […] One very important difference to the first study described in Example 1 was the fact that the mice received normal food with normal levels of tryptophan, nicotinic acid and nicotinamide (SAFE diet A4; Scientific Animal Food and Engineering, Augy, France; see Example 1). Therefore, any effects observed in this second study cannot be due to supplementation of NAM to NA/NAM/Trp-starved mice. In the present study, the same DSS colitis model in C57BL/6J mice as in Example 1 was used, albeit with some minor modifications: 2.5% DSS were used to provide a stronger DSS challenge. The animals were acclimatised for one week to stabilise their microbiota, randomised into 9 different groups as illustrated in the following Table 1 and then kept for 10 days on the different diets (days -10 to -1) before inducing colitis by DSS in the drinking water (day 0-day 6) followed by a washout period with normal drinking water (day 6-day 9). All groups received 2.5% DSS. [table] [table] The 5-ASA granules were the same as in Example 1. Their 5-ASA content was 52% (one granule weighed 0.5 mg and contained 0.26 mg of 5-ASA). The 5-ASA granules were mixed with regular food for preparation of single-use food aliquots, which were stored frozen at -20° C. and thawed daily prior to feeding the mice. […] Therefore, the food was prepared with 2.88 g of granules per kg of food (for the 150 mg/kg dose) or 1.44 g/kg (for the 75 mg/kg dose). The NAM granules of the present example were produced by the same manufacturer and in a similar formulation (diameter: 0.355-0.500 mm; NAM content: 19.1%) as in Example 1. Three kinds of food were prepared in an analogous fashion to the food with 5-ASA granules as described above. […] Therefore, the food preparation for the three dose groups was performed as follows: 1.57 g of granules per kg of food for the 30 mg/kg dose group, 6.28 g of granules per kg of food for the 120 mg/kg dose group and 12.56 g of granules per kg of food for the 240 mg/kg dose group. For the control group, food without granules was processed in the same fashion as the granule-containing food preparations described above in order to exclude preparation artefacts. After euthanasia, the colon was analysed and the disease activity index (DAI; score 0-9) was scored using an adapted DAI system based on […] et al. 2005 (Am. J. Physiol. Gastrointest. Liver Physiol. 288:[…]). As no visible blood was observed, the blood scoring parameter according to […] et al. was changed to scoring the signal strength for occult blood in feces detected by the ColoScreen test (Helena Laboratories, Beaumont, Tex., USA). This signal strength scoring was performed independently by two investigators blinded to the identity of the samples. [table] All comparisons were analysed using the […] for two independent samples in the StatXact software (Cytel, Cambridge, Mass., USA).

SMILES | histological score of the colonic mucosa ([1]; 5-ASA granules alone in diet, 150 mg/kg) | stool consistency (diarrhea) (murine DSS colitis model; 75 mg/kg 5-ASA alone) | % improvement of DAI vs DSS (murine DSS colitis model; 75 mg/kg 5-ASA) | stool consistency (diarrhea) (murine DSS colitis model; 150 mg/kg 5-ASA alone) | % improvement of DAI vs DSS (murine DSS colitis model; 150 mg/kg 5-ASA) | mice having blood in the feces (occult blood) (murine DSS colitis model; 150 mg/kg 5-ASA, control mice 100%, day of necropsy) | macroscopic inflammation score, dose effect (murine DSS colitis model; 5-ASA alone, 75 vs 150 mg/kg) | disease activity index (DAI), dose effect (murine DSS colitis model; doubling the dose of 5-ASA from 75 to 150 mg/kg) | histological score of the colonic mucosa ([1]; NAM granules alone in diet, 30 or 60 mg/kg) | % improvement of DAI vs DSS (murine DSS colitis model; 30 mg/kg NAM) | % improvement of DAI vs DSS (murine DSS colitis model; 120 mg/kg NAM) | % improvement of DAI vs DSS (murine DSS colitis model; 240 mg/kg NAM) | disease activity index (DAI), dose effect (murine DSS colitis model; NAM alone from 30 to 240 mg/kg) | macroscopic inflammation score, dose effect (murine DSS colitis model; NAM alone, 30 to 240 mg/kg) | stool consistency (diarrhea) (murine DSS colitis model; different NAM doses alone)
Nc1ccc(O)c(C(=O)O)c1 [5-ASA, 5-aminosalicylic acid] | trend towards histological improvement | hardly improved | 28% | significant effect | 43% | 53% | no difference | stronger decrease of the DAI | – | – | – | – | – | – | –
NC(=O)c1cccnc1 [NAM, nicotinamide] | – | – | – | – | – | – | – | – | trend towards histological improvement | 39% | 40% | 40% | no dose response | slight dose-dependent effect | hardly improved
